Experimental data reported in PubChem BioAssay (NCI).
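Cultured in 96-well plates, cells were exposed to test compound for 48 hours across five concentrations. TGI marks complete inhibition of growth.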

How the values were obtained:
Experiment in all cases: inhibition of tumour cell growth, NCI panel, 48 h
UACC-62 melanoma = test system: UACC-62 melanoma
HOP-18 NSCLC = test system: HOP-18 NSCLC
HOP-62 NSCLC = test system: HOP-62 NSCLC
SK-MEL-28 melanoma = test system: SK-MEL-28 melanoma
ACHN renal = test system: ACHN renal
MOLT-4 leukemia = test system: MOLT-4 leukemia
MALME-3M melanoma = test system: MALME-3M melanoma

Measured: TGI

Cc1ccc2c(=O)c3ccccc3sc2c1
> 100 µM: UACC-62 melanoma | HOP-18 NSCLC | HOP-62 NSCLC | SK-MEL-28 melanoma | ACHN renal | MOLT-4 leukemia | MALME-3M melanoma
